Test results from patent publication US20160213639A1, “COMPOSITIONS AND METHODS FOR TREATING NON-ALCOHOLIC STEATOHEPATITIS” (MOCHIDA PHARMACEUTICAL CO., LTD., priority 2013, published 2016).

What was measured:
[1] = ADME of 14C-EPA-E in rats (absorption, distribution, metabolites, excretion); type: in vivo
Procedure: EPADEL® is a product containing ethyl all-cis-5,8,11,14,17-eicosapentaenoate (EPA-E), one of the n-3 essential fatty acids. The preclinical absorption, distribution, metabolism and excretion (ADME) characteristics of EPA-E have been determined primarily in rats.
After administration of ^14C-EPA-E into the ligated intestine of rats, the residual radioactivity in the intestine at 24 hours was only 4.6% of the administered dose. Radioactivity transferred to the plasma and lymph was mainly detected in the triglyceride (TG) fraction in the early phase after dosing, while distribution to the free fatty acid (FFA) fraction was slight at all timepoints. […] Orally administered EPA-E was primarily incorporated in adrenal gland lipids as cholesterol esters of the fatty acids eicosapentaenoic acid (EPA), docosapentaenoic acid (DPA) and docosahexaenoic acid (DHA).
(§1) Consequently, when EPA-E is administered orally to humans, it would appear that it is well absorbed, even though the unchanged ethyl ester form is not detected, and the free form (EPA) is only detected at a very low level, in the blood. Due to this absorption mechanism of essential fatty acids, the administered EPA-E exists as a blood-constituent fatty acid in the total lipids. In fact, according to the approval package document of Lovaza®, the free form of EPA is undetectable in the circulation (<1 μM) following an oral dose of 4 g of Omacor® (a mixture of the ethyl esters of EPA and DHA) Following oral administration of EPA-E, EPA, DPA and DHA were isolated and identified as metabolites in tissues and plasma. EPA, DPA and DHA were incorporated into TG and PL. Radioactivity was primarily excreted in expired air (44%) after single oral administration at 30 mg/kg EPA-E with minimal excretion in bile and urine (˜3%) and approximately 20% excreted in feces.
Renal excretion was the elimination route for several minor highly polar metabolites (<0.4%), but EPA-E, EPA, DPA or DHA were not detected in the urine. In feces, EPA-E and EPA, evidently derived from the unabsorbed drug, were detected; however, no DPA or DHA was detected in the feces.
In the total lipid fraction of the liver, the radioactivity originated mainly from EPA, DPA and DHA. Thus, it is considered that EPA, DPA and DHA are the predominant metabolites of ^14C-EPA-E in tissues, as constituent fatty acids of the total lipid fraction.

[2] = Hydrolysis in small intestine homogenates, lymph, plasma and liver homogenates; type: in vitro ADME; details: plasma and liver homogenates of the rat
[3] = design: species or system dogs; details: dog, in vivo, po, 30 mg/kg, 1 week
Procedure: as §1

[4] = Safety pharmacology studies; type: in vivo; details: oral doses up to 3000 mg/kg
Elasticity of arteries = type: in vivo; details: rabbits
[5] = tested on: diet-induced hepatic steatosis model; test: Mouse diet-induced hepatic steatosis model; type: in vivo; details: repeat oral administration at >0.1 mg/g
[6] = Phase II NASH trial: safety analysis; type: in vivo, human; details: over the course of the study, all arms
Description: This example provides the protocol used for an ongoing phase II clinical trial, double blind, placebo-controlled study to investigate the safety, efficacy, and pharmacokinetic profile of two doses of EPA-E in subjects with NASH. Up to 70 subjects were enrolled into each treatment arm, for a total of 210 subjects to be enrolled. Block randomization using an interactive voice response system (IVRS) was used to assign patients in a 1:1:1 ratio to two active doses and placebo. Patients were stratified at randomization by presence or absence of diabetes. Patients with diabetes comprised no more than 25% of the total number of patients enrolled. Subjects were treated with 600 mg EPA-E, 900 mg EPA-E or placebo three times a day for one year. […]
The primary one-year efficacy endpoint was a composite of either a NAS <3 without worsening of fibrosis or a drop in NAS by 2 or more with contribution from more than one parameter and no worsening of fibrosis. […] This was assessed by analysis of covariance. Secondary endpoints included changes in the individual histological parameters related to NAFLD, overall NAS, liver enzymes and function, hemoglobin A1C, acute phase reactants, insulin sensitivity as measured by the homeostatic model (HOMA-IR), levels of cytokeratin 18 (CK18), hyaluronic acid, type IV collagen (7S domain), procollagen III peptide and key cytokines. […]

[7] = tested on: methionine-choline deficient diet rat model of nonalcoholic steatohepatitis; test: Methionine-choline deficient diet rat model of nonalcoholic steatohepatitis; type: in vivo; details: repeat oral administration at 1000 mg/kg
[8] = tested on: galactosamine-induced steatohepatitis mouse model; test: Galactosamine-induced steatohepatitis mouse model; type: in vivo; details: oral administration at 1000 mg/kg; by suppressing triglyceride accumulation
platelets = test: Platelet anti-aggregation; type: cell-based; details: platelets from rats, rabbits and humans
NASH [9] = test: Phase II NASH trial: liver histology (NAS, steatosis, ballooning, inflammation, fibrosis); type: in vivo, human; details: for subjects who met the primary endpoint: 12 months, p=ns vs placebo (20); for mean decrease in NAS: placebo 0.9, p=n.s.; for subjects with a decrease in NAS by more than 2 points: placebo sixteen, p=n.s.
Description: (§2) This example provides the protocol used for an ongoing phase II clinical trial, double blind, placebo-controlled study to investigate the safety, efficacy, and pharmacokinetic profile of two doses of EPA-E in subjects with NASH. Up to 70 subjects were enrolled into each treatment arm, for a total of 210 subjects to be enrolled. Block randomization using an interactive voice response system (IVRS) was used to assign patients in a 1:1:1 ratio to two active doses and placebo. Patients were stratified at randomization by presence or absence of diabetes. Patients with diabetes comprised no more than 25% of the total number of patients enrolled. Subjects were treated with 600 mg EPA-E, 900 mg EPA-E or placebo three times a day for one year.
In order to support the trial, EPA-E capsules and matching placebo capsules were prepared. EPA-E capsule is an oval soft gelatin capsule containing 300 mg of EPA-E as an active ingredient. […] These capsules are unidentifiable as EPA-E capsules or placebo capsules.
Subjects were administered orally 3 capsules 3 times daily, immediately after meals.
Adult subjects with biopsy-confirmed NASH within six months prior to randomization or those with suspected NASH were screened for the study. […] The histology was assessed using the NASH CRN criteria. The histological entry criteria included (1) the presence of possible or definite steatohepatitis, and (2) a NAFLD activity score (NAS) ≧4 with a minimum score of 1 each for steatosis and inflammation plus either ballooning or at least stage 1a sinusoidal fibrosis. The nonalcoholic nature of the disease was defined by a history of consumption of less than 3 drinks daily (approximately 10 gm alcohol/drink) for the previous 5 years. Those who exceeded these limits at the time of randomization or for more than 3 consecutive months within the five year time frame were excluded.
The liver biopsies from subjects being considered for the trial were sent to a central pathology laboratory where they were read and scored. A total of 4 pathologists with experience in liver histopathology reviewed the biopsies. All the pathologists underwent a training session conducted by the lead pathologist (OWC) prior to the study. After slide quality assessment, the cases were randomly assigned to 2 reviewers who scored fatty change, lobular inflammation, hepatocyte ballooning and fibrosis as previously described. If there was a discrepancy between any of these evaluations, a third randomly assigned reviewer agreed with one of the choices thereby producing a single concordant NAS and fibrosis score for the biopsy.
(§3) Following confirmation of eligibility based on both inclusion and exclusion criteria, subjects were randomized to receive placebo or one of two doses of EPA-E (1800 mg/day or 2700 mg/day) in three divided doses daily. Block randomization using an interactive voice response system was used to assign subjects in a 1:1:1 ratio between the three arms. Subjects were stratified by the presence of diabetes, impaired glucose tolerance or metabolic syndrome on stable doses of medication. The total fraction of such individuals was capped at 40% of the study cohort.
(§4) All subjects were followed according to a predefined clinic schedule. Data from unscheduled visits were collected in separate forms. Following twelve months of treatment, all subjects underwent a protocol-driven liver biopsy. Study drug was then discontinued.
The primary one-year efficacy endpoint was a composite of either a NAS <3 without worsening of fibrosis or a drop in NAS by 2 or more with contribution from more than one parameter and no worsening of fibrosis. The proportions of subjects meeting this endpoint after 12 months of treatment in those receiving EPA-E were compared to those receiving placebo using the Cochrane-Armitage trend test. A short-term efficacy endpoint was changes from baseline in alanine aminotransferase at 3 and 6 months. This was assessed by analysis of covariance. […]

[10] = Lipid lowering in animal models; type: in vivo; details: rats, hamsters and rabbits
NASH [11] = test: Phase II NASH trial: laboratory parameters and circulating markers; type: in vivo, human
Description: as §2, §3, §4
The primary one-year efficacy endpoint was a composite of either a NAS <3 without worsening of fibrosis or a drop in NAS by 2 or more with contribution from more than one parameter and no worsening of fibrosis. The proportions of subjects meeting this endpoint after 12 months of treatment in those receiving EPA-E were compared to those receiving placebo using the Cochrane-Armitage trend test. A short-term efficacy endpoint was changes from baseline in alanine aminotransferase at 3 and 6 months. This was assessed by analysis of covariance. Secondary endpoints included changes in the individual histological parameters related to NAFLD, overall NAS, liver enzymes and function, hemoglobin A1C, acute phase reactants, insulin sensitivity as measured by the homeostatic model (HOMA-IR), levels of cytokeratin 18 (CK18), hyaluronic acid, type IV collagen (7S domain), procollagen III peptide and key cytokines. Proportions of subjects meeting categorical endpoints were compared using the Cochrane-Armitage test for trend. Numerical scores were compared using Wilcoxon 2-sample tests. Safety-related endpoints included adverse events including hematological-, biochemical-, renal- and EKG-related abnormalities. These were enumerated.

[12] = Gastric fluid levels in pylorus-ligated rats; type: in vivo; details: 3000 mg/kg oral dose
CYP450 = details: at free concentrations observed in humans; cited from earlier work
[13] = single oral administration at 30 mg/kg

CC/C=C\C/C=C\C/C=C\C/C=C\C/C=C\CCCC(=O)OCC [^14C-EPA-E]
residual radioactivity in the intestine ([1]; administration into the ligated intestine of rats, at 24 hours): 4.6 % of the administered dose | unchanged EPA-E in plasma or tissues ([1]; oral administration to the rat): no unchanged EPA-E was found | metabolites in the total lipid fraction of plasma and tissues ([1]; oral administration to the rat, liver, fat, heart and brain): EPA, DPA and DHA were detected as metabolites | distribution of radioactivity in body tissues ([1]; rats): relatively high levels were observed especially in the brown fat, adrenal, liver and pancreas | absorption ([1]; single oral dose 30-1000 mg/kg, rats): well-absorbed, mainly through the lymphatic route | hydrolysis [2]: hydrolyzed rapidly | radioactivity excreted in the urine [3]: 1.0% | radioactivity recovered in the feces [3]: 19.2%

CC/C=C\C/C=C\C/C=C\C/C=C\C/C=C\CCCC(=O)OCC [EPA-E, ethyl all-cis-5,8,11,14,17-eicosapentaenoate]
effect on central nervous, autonomic nervous, respiratory and cardiovascular systems [4]: no effect on the central nervous, autonomic nervous, respiratory and cardiovascular systems | elasticity of arteries (Elasticity of arteries): preserve the elasticity of arteries | fat accumulation [5]: suppressed fat accumulation | hepatic SREBP-1c levels [5]: suppressing hepatic SREBP-1c levels | deaths [6]: No deaths occurred | fibrosis [7]: inhibited fibrosis | progression of steatohepatitis [8]: retarded progression of steatohepatitis | radioactivity excreted in expired air ([1]; rat, in vivo, po, 30 mg/kg): 44% | radioactivity excreted in bile and urine [1, 13]: ~3% | radioactivity excreted in feces [1, 13]: approximately 20% | effects on platelets (platelets): anti-aggregation effects | distribution of fibrosis scores (NASH [9]; any of the treatment arms, over the duration of the study): no significant changes in the distribution of fibrosis scores | steatosis grade (NASH [9]; cohort as a whole, low dose and high dose, efficacy evaluable dataset): Neither low dose-nor high dose-EPA-E affected the steatosis grade significantly | subjects who met the primary endpoint (NASH [9]; high dose EPA-E (2700 mg/day)): 22 subjects | mean decrease in NAS (NASH [9]; high dose EPA-E (2700 mg/day)): 0.8 | subjects with a decrease in NAS by more than 2 points (NASH [9]; high dose EPA-E (2700 mg/day)): 18 subjects | subjects who met the primary endpoint (NASH [9]; low dose EPA-E (1800 mg/day)): 19 subjects | mean decrease in NAS (NASH [9]; low dose EPA-E (1800 mg/day)): 1 | subjects with a decrease in NAS by more than 2 points (NASH [9]; low dose EPA-E (1800 mg/day)): 16 subjects | cytological ballooning and lobular inflammation scores (NASH [9]; low dose and high dose, efficacy evaluable dataset): not significantly altered | increased likelihood of beneficial impact on overall NAS score (NASH [9]; women <50, 1800 mg/day vs placebo, adjusted, p<0.03): 10 fold | increased likelihood of beneficial impact on steatosis grade (NASH [9]; women <50, 1800 mg/day vs placebo, adjusted, p<0.04): 8 fold | increased likelihood of beneficial impact on overall NAS score (NASH [9]; women <50, 2700 mg/day vs placebo, adjusted, p<0.04): 7 fold | odds ratio, beneficial impact in steatosis (NASH [9]; women under 50 years of age, low dose EPA-E vs placebo, adjusted for baseline histology, BMI and changes in BMI, p=0.03): 7.9 | odds ratio, beneficial impact in overall NAS (NASH [9]; women under 50 years of age, low dose EPA-E vs placebo, adjusted, p=0.02): 10.5 | odds ratio, beneficial impact in overall NAS (NASH [9]; women under 50 years of age, second value (dose group not given), adjusted, p=0.03): 6.8 | lipids [10]: lower lipids | body mass index (NASH [11]; across groups): remained similar across groups | AST, ALT or GGT (NASH [11]; baseline to end of study, FIG. 8): no significant changes | HgbA1C or circulating fasting insulin concentrations (NASH [11]; either active treatment arm compared to placebo): no significant changes | change in serum triglycerides (NASH [11]; high dose EPA-E, placebo 11.5±50.9, p<0.05, Wilcoxon rank sum test): −4.9±116.0 | change in serum ALT (NASH [11]; high dose EPA-E, placebo −24.1±48.3, p<0.05, Wilcoxon rank sum test): −3.2±51.5 | hepatic synthetic functions (NASH [11]; over the course of the study): did not change over the course of the study and remained stable | gastric fluid levels [12]: reduction in gastric fluid levels

CC/C=C\C/C=C\C/C=C\C/C=C\C/C=C\CCCC(=O)O [EPA, eicosapentaenoic acid]
CYP450 inhibition (CYP450): unlikely to inhibit CYP450
